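Briefly, cells in 96-well plates were exposed to five compound concentrations for 48 h, and endpoints were estimated by linear interpolation. GI50: concentration for 50% inhibition of growth.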 Calls of active or inactive are those of the source. Cut-off read from the data, not from the text of the source: active = GI50 up to about 1.1 µM and inactive = higher. Square brackets hold non-standard residues; d marks the D form. Peptide text beside a SMILES is read from it. * marks the point of attachment. ξ: configuration not given here. NMeN = CN[C@@H](CC(N)=O)C(=O)O; NMeV = CN[C@H](C(=O)O)C(C)C; ξNMeV = CNC(C(=O)O)C(C)C; Boc = CC(C)(C)OC(=O)*; ξNMeA = CNC(C)C(=O)O
Tests used:
Test in all cases: inhibition of tumour cell growth, NCI panel, 48 h
SF-539 = system: SF-539
HCT-116 = system: HCT-116
786-0 = system: 786-0
MDA-N = system: MDA-N
A549 = system: A549
U-251 = system: U-251
HOP-92 = system: HOP-92
UACC-62 = system: UACC-62
UACC-257 = system: UACC-257
OVCAR-8 = system: OVCAR-8
MDA-MB-435 = system: MDA-MB-435
MCF7 = system: MCF7
K562 = system: K562
OVCAR-4 = system: OVCAR-4
MDA-MB-231 = system: MDA-MB-231
HL-60 = system: HL-60
DU-145 = system: DU-145
M14 = system: M14
Malme-3M = system: Malme-3M
RPMI-8226 = system: RPMI-8226

| Structure (SMILES) | GI50 (SF-539) | GI50 (HCT-116) | GI50 (786-0) | GI50 (MDA-N) | GI50 (A549) | GI50 (U-251) | GI50 (HOP-92) | GI50 (UACC-62) | GI50 (UACC-257) | GI50 (OVCAR-8) | GI50 (MDA-MB-435) | GI50 (MCF7) | GI50 (K562) | GI50 (OVCAR-4) | GI50 (MDA-MB-231) | GI50 (HL-60) | GI50 (DU-145) | GI50 (M14) | GI50 (Malme-3M) | GI50 (RPMI-8226) |
| --- | --- | --- | --- | --- | --- | --- | --- | --- | --- | --- | --- | --- | --- | --- | --- | --- | --- | --- | --- | --- |
| CCCCCCCCSC1=C(Cl)C(=O)C(OC)=C(OC)C1=O | 14.2 µM (inactive) | 4.83 µM (inactive) | 12.5 µM (inactive) | 3.82 µM (inactive) | 17.9 µM (inactive) | 10.5 µM (inactive) | 17 µM (inactive) | 10.3 µM (inactive) | 5.6 µM (inactive) | 12 µM (inactive) | 4.45 µM (inactive) | 3.94 µM (inactive) | 9.71 µM (inactive) | 11.1 µM (inactive) | 12.4 µM (inactive) | 2.11 µM (inactive) | 15.1 µM (inactive) | 2.16 µM (inactive) | 7.73 µM (inactive) | 0.52 µM (active) |
| OCCc1ccsc1-c1sc(-c2cc(CCO)c(-c3sc(-c4cc(CCO)c(-c5sccc5CCO)s4)cc3CCO)s2)cc1CCO | 1.44 µM (inactive) | 0.889 µM (active) | 0.776 µM (active) | 1.24 µM (inactive) | 0.656 µM (active) | 0.957 µM (active) | 1.14 µM (inactive) | 1.56 µM (inactive) | 1.13 µM (inactive) | 1.55 µM (inactive) | 1.32 µM (inactive) | 0.624 µM (active) | 1.14 µM (inactive) | 1.16 µM (inactive) | 2.83 µM (inactive) | 1.53 µM (inactive) | 1.34 µM (inactive) | 1.82 µM (inactive) | 1.14 µM (inactive) | 0.344 µM (active) |
| COc1cc2c(c3c1c(=O)c1ccccc1n3C)C=CC1(CCCC1)O2 | 4.16 µM (inactive) | 15.1 µM (inactive) | 6.56 µM (inactive) | 15.3 µM (inactive) | 19.7 µM (inactive) | 12.8 µM (inactive) | 16.6 µM (inactive) | 13.1 µM (inactive) | 15.9 µM (inactive) | 18.4 µM (inactive) | 16.4 µM (inactive) | 16 µM (inactive) | 7.5 µM (inactive) | 12.2 µM (inactive) | 12.4 µM (inactive) | 7.29 µM (inactive) | 17.6 µM (inactive) | 13.3 µM (inactive) | 16.4 µM (inactive) | 1.81 µM (inactive) |
| O=C(Nc1ccccc1)N(C1=NCC(CI)S1)c1ccc(F)cc1F (stereo not given) | 59.3 µM (inactive) | 55.2 µM (inactive) | 46 µM (inactive) | 35.9 µM (inactive) | > 100 µM (inactive) | > 100 µM (inactive) | 13.8 µM (inactive) | 25.6 µM (inactive) | 23.2 µM (inactive) | > 100 µM (inactive) | 50.1 µM (inactive) | 41.6 µM (inactive) | 41.5 µM (inactive) | 43.6 µM (inactive) | 20.2 µM (inactive) | 20.1 µM (inactive) | > 100 µM (inactive) | 79.1 µM (inactive) | > 100 µM (inactive) | 56.2 µM (inactive) |
| O=C1NN=C2C=C(c3ccc(Cl)cc3)CC(c3cccc(Cl)c3)C12 (stereo not given) | 24.5 µM (inactive) | 18.5 µM (inactive) | 21.4 µM (inactive) | 23.4 µM (inactive) | 16.4 µM (inactive) | 18.9 µM (inactive) | 9.79 µM (inactive) | 15.8 µM (inactive) | 17.9 µM (inactive) | 45.4 µM (inactive) | 19.1 µM (inactive) | 17.3 µM (inactive) | 17.1 µM (inactive) | 17.2 µM (inactive) | 17.7 µM (inactive) | 21.2 µM (inactive) | 64.3 µM (inactive) | 38.3 µM (inactive) | 37.2 µM (inactive) | 20.5 µM (inactive) |
| C=C1C(=O)OC2/C=C(/C)C3(O)OC(C)(CC(OC(=O)C(C)C)C12)CC3OC(C)=O (stereo not given) | 3.05 µM (inactive) | 5.3 µM (inactive) | 5.27 µM (inactive) | 2.04 µM (inactive) | 10.8 µM (inactive) | 8 µM (inactive) | 13.3 µM (inactive) | 11 µM (inactive) | 16.4 µM (inactive) | 3.27 µM (inactive) | 3.96 µM (inactive) | 3.7 µM (inactive) | 2.96 µM (inactive) | 13.2 µM (inactive) | 12.5 µM (inactive) | 2.64 µM (inactive) | 8.26 µM (inactive) | 6.92 µM (inactive) | 9.91 µM (inactive) | 4.43 µM (inactive) |
| O=[N+]([O-])c1ccc(/C(=C\c2ccccc2)Cn2ccnc2)cc1 | 43.4 µM (inactive) | 23.6 µM (inactive) | 34.3 µM (inactive) | 25.4 µM (inactive) | 39.3 µM (inactive) | 33.3 µM (inactive) | 18.9 µM (inactive) | 33.5 µM (inactive) | 37.6 µM (inactive) | 35.9 µM (inactive) | 34.4 µM (inactive) | 19.9 µM (inactive) | 17.8 µM (inactive) | 40.5 µM (inactive) | 13.1 µM (inactive) | 19 µM (inactive) | 60 µM (inactive) | 36.9 µM (inactive) | 85.5 µM (inactive) | 28.9 µM (inactive) |
| C=C(CCCCCCCCC)CC(=O)SCCNC(=O)CCNC(=O)C(O)C(C)(C)COP(=O)(O)OP(=O)(O)OCC1OC(n2cnc3c(N)ncnc32)C(O)C1OP(=O)(O)O (stereo not given) | 51.3 µM (inactive) | 45.5 µM (inactive) | 69.5 µM (inactive) | 32.1 µM (inactive) | > 92.5 µM (inactive) | 49.9 µM (inactive) | 75.5 µM (inactive) | 21.1 µM (inactive) | 48.1 µM (inactive) | 58.2 µM (inactive) | 26.6 µM (inactive) | > 87.5 µM (inactive) | > 31.6 µM (inactive) | 60.4 µM (inactive) | > 77.8 µM (inactive) | 36.1 µM (inactive) | > 100 µM (inactive) | 25.5 µM (inactive) | > 100 µM (inactive) | 23.8 µM (inactive) |
| COC(=O)C(C)N(C)C(=O)[C@H](CC(N)=O)N(C)C(=O)[C@@H]1CCCN1C(=O)[C@H](C(C)C)N(C)C(=O)C(C(C)C)N(C)C(=O)[C@@H](NC(=O)OC(C)(C)C)C(C)C (stereo not given in full) (Boc-V[ξNMeV][NMeV]P[NMeN][ξNMeA]-OMe) | > 50 µM (inactive) | 30.3 µM (inactive) | > 50 µM (inactive) | > 50 µM (inactive) | 37.5 µM (inactive) | > 50 µM (inactive) | > 50 µM (inactive) | > 50 µM (inactive) | > 50 µM (inactive) | > 100 µM (inactive) | > 50 µM (inactive) | > 50 µM (inactive) | 43.4 µM (inactive) | > 100 µM (inactive) | > 50 µM (inactive) | 15.1 µM (inactive) | > 50 µM (inactive) | > 50 µM (inactive) | > 100 µM (inactive) | > 50 µM (inactive) |
| COc1cc2c(c(O)c1OC)-c1c(cc(OC)c(OC)c1OC)CC(C)C(C)C2 (stereo not given) [GOMISIN K3] | 66.1 µM (inactive) | 34.7 µM (inactive) | 37.7 µM (inactive) | 73.3 µM (inactive) | 43.7 µM (inactive) | 49.9 µM (inactive) | 36.7 µM (inactive) | 43.1 µM (inactive) | 25.6 µM (inactive) | 51.9 µM (inactive) | 50 µM (inactive) | 33 µM (inactive) | 38.8 µM (inactive) | 30.3 µM (inactive) | 37.8 µM (inactive) | 25.5 µM (inactive) | 45.8 µM (inactive) | 45.1 µM (inactive) | 68.7 µM (inactive) | 39.4 µM (inactive) |

From ChEMBL document CHEMBL1201862, “PubChem BioAssay data set” (2004)
